Series [1] concerns the target T1, human TMEM16A (TMEM16Aabc variant) (Homo sapiens, UniProt Q5XXA6, DEL476-501).
T1 sequence (Q5XXA6 with tags, fused parts or gaps isoform Q5XXA6-5 DEL539-564): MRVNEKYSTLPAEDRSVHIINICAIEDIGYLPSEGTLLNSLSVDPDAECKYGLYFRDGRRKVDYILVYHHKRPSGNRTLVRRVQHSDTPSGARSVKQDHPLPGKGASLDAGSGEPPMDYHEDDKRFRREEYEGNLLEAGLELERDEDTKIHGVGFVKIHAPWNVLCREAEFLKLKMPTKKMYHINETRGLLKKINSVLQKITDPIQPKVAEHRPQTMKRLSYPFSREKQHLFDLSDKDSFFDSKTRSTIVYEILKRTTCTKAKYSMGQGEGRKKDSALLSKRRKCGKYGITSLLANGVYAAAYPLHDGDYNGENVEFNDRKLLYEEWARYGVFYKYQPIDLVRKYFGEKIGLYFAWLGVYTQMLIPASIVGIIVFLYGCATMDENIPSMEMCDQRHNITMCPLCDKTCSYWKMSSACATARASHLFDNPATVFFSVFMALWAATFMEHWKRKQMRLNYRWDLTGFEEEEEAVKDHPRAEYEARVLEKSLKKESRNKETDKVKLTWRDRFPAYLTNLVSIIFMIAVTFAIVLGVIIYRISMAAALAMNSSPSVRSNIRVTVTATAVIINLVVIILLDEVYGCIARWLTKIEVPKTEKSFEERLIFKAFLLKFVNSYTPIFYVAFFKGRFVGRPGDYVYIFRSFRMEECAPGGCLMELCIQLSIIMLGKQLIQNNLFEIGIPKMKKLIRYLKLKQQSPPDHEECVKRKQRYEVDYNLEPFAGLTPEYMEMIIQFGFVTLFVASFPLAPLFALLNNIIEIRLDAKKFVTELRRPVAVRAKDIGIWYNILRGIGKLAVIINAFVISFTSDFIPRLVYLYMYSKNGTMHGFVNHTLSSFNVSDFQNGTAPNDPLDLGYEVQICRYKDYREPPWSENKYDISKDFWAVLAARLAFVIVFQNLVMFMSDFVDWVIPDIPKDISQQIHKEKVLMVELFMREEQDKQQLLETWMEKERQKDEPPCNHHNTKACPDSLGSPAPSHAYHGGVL
Kind of series: Automated whole-cell patch clamp (Qpatch) TMEM16A potentiator assay in recombinant FRT cells. Type of series: cell-based. Conditions: for activation at 3.33 µM: percentage increase of baseline TMEM16A current, minimum n = 2, read-out: % Potentiation @ 3.33 uM Avg; for EC50: minimum n = 2. The protocol:
Automated Whole-Cell Patch Clamp Assay to Detect TMEM16A Activity in Recombinant Cells
Fisher rat thyroid (FRT) cells stably expressing human TMEM16A (TMEM16Aabc variant; Dr Luis Galietta, Insituto Giannina, Italy) were cultured in T-75 flasks in Hams F-12 media with Coon's modification (Sigma) supplemented with 10% (v/v) foetal bovine serum, penicillin-streptomycin (10,000 U/mL/10000 μg/mL), G-418 (750 μg/mL), L-glutamine (2 mM) and sodium bicarbonate solution (7.5% v/v). At ˜90% confluence cells were harvested for experiments by detachment with a 2:1 (v/v) mixture of Detachin (BMS Biotechnology) and 0.25% (w/v) trypsin-EDTA.
FRT-TMEM16A cells were whole-cell patch clamped using an automated planar patch clamp system (Qpatch, Sophion). Briefly, once high resistance (GOhm) seals were established between the cells and the planar recording array the patch was ruptured using suction pulses to establish the whole-cell recording configuration of the patch clamp technique. The assay employed the following solutions (all reagents Sigma): Intracellular solution (mM): N-methyl-D-glucamine 130, CaCl2 18.2, MgCl2 1, HEPES 10, EGTA 10, BAPTA 20, Mg-ATP 2, pH 7.25, 325 mOsm with sucrose.
Extracellular solution (mM): N-methyl-D-glucamine 130, CaCl2 2, MgCl2 1, HEPES 10, pH 7.3, 320 mOsm with sucrose.
The intracellular solution buffers intracellular calcium at levels required to give ˜20% activation of the maximal TMEM16A mediated current (E020 for calcium ions). Cells were voltage clamped at a holding potential of −70mV and a combined voltage step (to +70 mV)/ramp (−90 my to +90 mV) was applied at 0.05 Hz. After a period of current stabilisation test compounds, solubilised in 100% (v/v) DMSO and subsequently diluted into extracellular solution, were applied to generate a cumulative concentration response curve. Each concentration of test compound was incubated for 5 minutes before addition of the next concentration. After the final concentration was tested a supramaximal concentration of either a known active positive modulator or the TMEM16A inhibitor, CaCCinhA01 (Del La Fuente et al, 2008) was added to define the upper and lower limits of the assay.
Compound activity was quantified by measuring the increase in current upon compound addition and expressing this as a percentage increase of baseline TMEM16A current level.
Peak TMEM16A current at +70 mV was plotted as a function of time over the assay period. Baseline current (IBL) was measured after a period of stabilisation. The increase in current for each compound addition was determined by taking the peak current during the incubation period and subtracting the current from the previous recording period and then expressing this as a percentage of the baseline current (% potentiation). For test compound concentration 1 in FIG. 1 this is:
For each additional concentration tested the increase in current was determined by subtracting the current from the previous incubation period and normalising the baseline value—for test concentration 2 in FIG. 1 this is:
The values for each test concentration were plotted as a cumulative function of concentration eg. for test concentration two this would be the sum of the peak changes measured during concentration one plus concentration two.
(The patch-clamp technique gives a direct electrical read-out from membranes.)

Series [2] can be described thus: Kinetic solubility determination (high throughput). It counts as physicochemical. To be noted: kinetic from dmso stock, sterile water, 5% DMSO, room temperature. How it is done: Test compounds (10 μL; 20 mM DMSO solution) were added to sterile water (190 μL) in triplicate and shaken at 300 rpm at room temperature. After 90 min. the test compounds were filtered by centrifuge (5 min. at 3000 rpm) to obtain the aqueous filtrate. Acetonitrile (20 μL) was dispensed into clean 96-well UV/VIS analysis plate and aqueous filtrate (80 μL) added and the plate analysed for test compound concentration using a Molecular Devices SPECTRAmax® plus microplate reader at the following wavelengths: (280, 300, 320, 340, 360, 800 nm). […] The diluted filtrate (80 μL) was then added to acetonitrile (20 μL) and the plate analysed. as previously.

Series [3] is described as follows: Log D (pH7.4 shake flask). It counts as physicochemical. Conditions: pH 7.4; 1-octanol/phosphate buffer shake flask; read-out: mLogD (pH 7.4). The protocol:
Phosphate buffer (1 M) was diluted to 20 mM with deionised water and adjusted to pH 7.4 with phosphoric acid or sodium hydroxide. 1-octanol and phosphate buffer (20 mM) were saturated overnight by tumbling. The two phases were separated using a separation funnel. 5 μL of 5 mM compound cassette was added to 495 μL of octanol-saturated buffer and 495 μL buffer saturated octanol in a 96-well plate (top concentration 50 μM). Plate was shaken for 1 h and centrifuged at 25° C. for 5 min. 200 μL of each phase was transferred to a separate plate. The octanol layer was sampled first to avoid cross contamination. 5 μL of the solutions were transferred to 495 μL of quench solution* (max concentration 0.5 μM). In addition, 40 μL of buffer solution was added to 360 μL of quench solvent (max concentration 5 μM). Samples were analysed by LC-MS/MS. Benchmarking against a calibration curve for each compound and with reference to the control compounds sulpride, diclofenac, chlorpromazine and tamoxifen. *Quench solution was a 1:3:1 mixture (v/v/v) of Acetonitrile containing 0.1% formic acid and imipramine/labetalol, 200 nM:Acetonitrile:Water.

The structures appear in SMILES notation. Converted amounts (≈) assume the structure as drawn.

The term EC50 denotes the concentration needed to bring the measured effect to its halfway point. By solubility (kinetic) is commonly meant solubility judged after dilution from a stock solution rather than from solid.

Regarding `C#CC(C)(C)NC(=O)c1cc(NC(=O)Cc2cc(O)c(C(C)(C)C)cc2F)ccn1` [Example 1.1], in series [1], the activation at 3.33 µM stood at 118% and the EC50 was 26 nM. The kinetic solubility at 90 min in series [2] worked out at 6 µg/mL (≈ 14.6 µM). In series [3], the logD is > 4.
Taken in the same sequence, the figures for `C#CC1(NC(=O)c2cc(NC(=O)Cc3cc(O)c(C(C)(C)C)cc3F)ccn2)CCCC1` [Example 1.2] were 149%, 45 nM, 3 µg/mL (≈ 6.86 µM) and > 4.5.
Take `CC(C)(C)c1cc(F)c(CC(=O)Nc2ccnc(C(=O)NC3(C#N)CC3)c2)cc1O` [Example 1.5]: in series [1], the activation at 3.33 µM stood at 148% and the EC50 was found to be 65 nM. The same molecule registered a solubility (kinetic) at 90 min in series [2] of 11 µg/mL (≈ 26.8 µM). Also, the logD in series [3] was found to be 3.7.
On the same counts, the results for `CC(C)(C)NC(=O)c1cc(NC(=O)Cc2cc(O)c(C(C)(C)C#N)cc2F)ccn1` [Example 2.2, N-tert-Butyl-4-[[2-[4-(1-cyano-1-methyl-ethyl)-2-fluoro-5-hydroxy-phenyl]acetyl]amino]pyridine-2-carboxamide] are 356%, 150 nM, 42 µg/mL (≈ 102 µM) and > 4.2.
For `CC(C)(C#N)c1cc(F)c(CC(=O)Nc2ccnc(C(=O)NC3(C(F)(F)F)CC3)c2)cc1O` [Example 2.3, 4-[[2-[4-(1-Cyano-1-methyl-ethyl)-2-fluoro-5-hydroxy-phenyl]acetyl]amino]-N-[1-(trifluoromethyl)cyclopropyl]pyridine-2-carboxamide], in series [1], the activation at 3.33 µM was found to be 72.1% and the half-maximal effective concentration (EC50) is 52 nM. The molecule further yielded a kinetic solubility at 90 min in series [2] of 69 µg/mL (≈ 149 µM). In addition, the logD in series [3] was 2.9.
On to `CC(C)(C#N)NC(=O)c1cc(NC(=O)Cc2cc(O)c(C(C)(C)CN3CCOCC3)cc2F)ccn1` [Example 2.5, N-(1-Cyano-1-methyl-ethyl)-4-[[2-[4-(1,1-dimethyl-2-morpholino-ethyl)-2-fluoro-5-hydroxy-phenyl]acetyl]amino]pyridine-2-carboxamide], for which the activation at 3.33 µM in series [1] was determined as 112%. The solubility (kinetic) at 90 min in series [2] was determined as 327 µg/mL (≈ 657 µM). Moreover, the logD in series [3] was determined as 2.7.
As to `CC(C)(C#N)NC(=O)c1cc(NC(=O)Cc2cc(O)c(C(C)(O)C(F)(F)F)cc2F)ccn1` (stereo not shown) [Example 2.7, N-(1-Cyano-1-methyl-ethyl)-4-[[2-[2-fluoro-5-hydroxy-4-(2,2,2-trifluoro-1-hydroxy-1-methyl-ethyl)phenyl]acetyl]amino]pyridine-2-carboxamide], in series [1], the activation at 3.33 µM amounted to 309% and the EC50 was 219 nM. This molecule registered a kinetic solubility at 90 min in series [2] of 164 µg/mL (≈ 350 µM). Besides, in series [3], the logD worked out at 3.
Consider `CC(C)(C#N)NC(=O)c1cc(NC(=O)Cc2cc(O)c(C3(C(F)(F)F)CCO3)cc2F)ccn1` (stereo not shown) [Example 2.14, N-(1-Cyano-1-methyl-ethyl)-4-[[2-[2-fluoro-5-hydroxy-4-[2-(trifluoromethyl)oxetan-2-yl]phenyl]acetyl]amino]pyridine-2-carboxamide], for which, in series [1], the activation at 3.33 µM was 122% and the EC50 stood at 27 nM. In series [2], this molecule showed a kinetic solubility at 90 min of 99 µg/mL (≈ 206 µM).
On to `[2H]c1c(O)c(C(C([2H])([2H])[2H])(C([2H])([2H])[2H])C([2H])([2H])[2H])cc(F)c1CC(=O)Nc1ccnc(C(=O)NC2(C#N)CC2)c1` [Example 4, N-(1-Cyanocyclopropyl)-4-[[2-[2-deuterio-6-fluoro-3-hydroxy-4-[2,2,2-trideuterio-1,1-bis(trideuteriomethyl)ethyl]phenyl]acetyl]amino]pyridine-2-carboxamide], for which, in series [1], the activation at 3.33 µM turned out to be 186% and the EC50 came out at 29 nM. Further, the solubility (kinetic) at 90 min in series [2] came to 29 µg/mL (≈ 69 µM). Moreover, in series [3], the logD is 3.8.
For `CC(C)(C#N)NC(=O)c1cc(NC(=O)Cc2cc(O)c(C3(C)CCC3)cc2F)ccn1` [Example 5, N-(1-Cyano-1-methyl-ethyl)-4-[[2-[2-fluoro-5-hydroxy-4-(1-methylcyclobutyl)phenyl]acetyl]amino]pyridine-2-carboxamide], in series [1], the activation at 3.33 µM turned out to be 335% and the EC50 came to 43 nM. In series [2], this molecule displayed a kinetic solubility at 90 min of 17 µg/mL (≈ 40 µM). Also, the logD in series [3] was > 4.
Taken in the same sequence, the figures for `CC(C)c1cc(C(C)(C)C)c(O)cc1CC(=O)Nc1ccnc(C(=O)NC(C)(C)C)c1` [Example 6, N-tert-Butyl-4-[[2-(4-tert-butyl-5-hydroxy-2-isopropyl-phenyl)acetyl]amino]pyridine-2-carboxamide] were 513%, 99 nM, 12 µg/mL (≈ 28.2 µM) and > 4.
As for `C=C(C)c1cc(F)c(CC(=O)Nc2ccnc(C(=O)NC3(C(F)(F)F)CC3)c2)cc1O` [Example 7.1, 4-[[2-(2-Fluoro-5-hydroxy-4-isopropenyl-phenyl)acetyl]amino]-N-[1-(trifluoromethyl)cyclopropyl]pyridine-2-carboxamide], in series [1], the activation at 3.33 µM stood at 433% and the EC50 came to 15 nM. The kinetic solubility at 90 min in series [2] worked out at 18 µg/mL (≈ 41.2 µM). Further, the logD in series [3] was > 4.2.

For the origin of these results see patent US20220235006A1, “PYRIDINE DERIVATIVES AS TMEM16A MODULATORS FOR USE IN THE TREATMENT OF RESPIRATORY CONDITIONS” (TMEM16A LIMITED, priority 2019, published 2022).
